The source of these data is patent US9789101B2, “Methods and compositions for treating microbial infection using pyrroloquinone” (HELPERBY THERAPEUTICS LIMITED, priority 2010, dated 2017).

Where a name gives a salt, the structure may show the parent alone.

Test [1] concerns log phase Staphylococcus aureus. As to the kind of experiment: Chequerboard analysis of HT00800059 and HT61 against log phase Staphylococcus aureus. The test is classed as cell-based, Staphylococcus aureus (Oxford). As for the experimental part: (§1) Staphylococcus aureus (Oxford); Gram positive; Reference strain.
(§2) Log phase growth of methicilin sensitive Staphylococcus aureus (MSSA) was carried out as follows: • Bacteria were grown in 10 ml of nutrient broth (No. 2, (Oxoid)) overnight at 37° C. with continuous shaking at 120 rpm. The overnight cultures were diluted 1000× with iso-sensitest broth. The cultures were incubated at 37° C. with shaking for 1-2 hours to reach log CFU 6. Viability of the bacteria was estimated by colony forming unit (CFU) counts. From serial 10-fold dilutions of the experimental cultures, 100 μl samples were added to triplicate plates of nutrient agar plates (Oxoid) or blood agar plates (Oxoid). CFUs were counted after incubation of the plates at 37° C. for 24 hours.
(§3) Bacterial cultures: 10 μl of overnight cultures was added to 10 ml of fresh iso-sensitest broth to make the inoculation to 10^6 CFU/ml. 290 μl of the cell suspension was added to each well of the 96 well plate, which was incubated at 37° C. for 24 hours. 300 μl of iso-sensitest broth without bacterial cells were added to wells of the plate as a no bacterial control.
(§4) MIC determination: The optical density of the bacterial cells was read at 405 nm using a plate reader (Bio TEK). The MIC concentration was determined as the lowest concentration of drug which inhibits the bacterial growth.
HT61 was dissolved in DMSO to the stock concentration of 10 mg/ml.
(§5) HT00800059 was dissolved in H2O to the stock solution 30.07 mg/ml.
The drugs were first diluted as follows: • 28.8 μl of HT61 at 10 mg/ml was added into 271.2 μl of H2O followed by diluting 2 fold for 6 times.
Both drugs were mixed as following pattern: 10 μl of HT00800059 from each dilution was added into the wells of a 96 well plate from top to bottom and 10 μl of HT61 from each dilution was added to the same 96 well plate from left to right. After addition of 280 μl log phase cell suspension, the final concentrations of drugs for each well in the 96 well plate are shown in the table below.
Incubation of the compounds with the bacterial suspension was carried out for 24 hours. The kill effect of the drug combination and signal drug MIC was measured by optical density reading at 405 nm with a plate reader (Bio TEK). The MIC concentration was determined as the lowest concentration of drug which inhibits the bacterial growth.
(§6) The fractional inhibitory concentration (FIC) index was carried out as follows: (MIC of drug A, tested in combination)/(MIC of drug A, tested alone)+(MIC of drug B, tested in combination)/(MIC of drug B, tested alone). The interaction was defined as synergistic if the FIC index was <1, additive if the FIC index was =1 and antagonistic if the FIC index was >1.

For test [2] the test system is unchanged. The test can be described thus: Chequerboard analysis of HT00800059 with HT230 or HT281 against log phase Staphylococcus aureus. Type of test: cell-based, Staphylococcus aureus (Oxford). The method, then: as §1, §2, §3, §4
HT230 was dissolved in DMSO to the stock concentration of 10 mg/ml.
HT281 was dissolved in DMSO to the stock concentration of 10 mg/ml.
as §5
HT230 or HT281 (10 mg/ml) was firstly diluted to 0.96 mg/ml, then a serial of 2 fold dilution was carried out.
This was followed by the addition of 280 μl of log phase culture at 10^6 CFU/ml to make the final concentrations of each drug as shown.
In the above table, values in bold text are for HT00800059. Values in plain text are for HT230 or HT281. The numbers shown in each well are μg/ml.
Incubation of the compounds with the bacterial suspension was carried out for 24 hours. The kill effects of the drug combination were measured by optical density reading at 405 nm with a plate reader (Bio TEK).
as §6

The test system of test [3] is clinically latent microorganisms. As to the kind of experiment: Screening for ability to kill clinically latent microorganisms (method of WO2000028074). The test is classed as cell-based. The note with it: observed by the Applicant. From the text: International Patent Application, Publication Number WO2000028074 describes a method of screening compounds to determine their ability to kill clinically latent microorganisms. […] This observation has necessitated the development of novel antimicrobials which may be used to kill clinically latent microorganisms.
By way of example, WO2000028074 describes a suitable method of screening compounds to determine their ability to kill clinically latent microorganisms. A typical method may include the following steps: • (1) growing a bacterial culture to stationery phase; • (2) treating the stationery phase culture with one or more antimicrobial agents at a concentration and or time sufficient to kill growing bacteria, thereby selecting a phenotypically resistant sub-population; • (3) incubating a sample of the phenotypically resistant subpopulation with one or more test compounds or agents; and • (4) assessing any antimicrobial effects against the phenotypically resistant subpopulation.

Setting [4] is: Staphylococcus aureus, read-out: alone MIC.

Turning to `CCCCOc1ccc(C(=O)CCN2CCCCC2)cc1` [HT00800059, dyclonine (1-(4-Butoxyphenyl)-3-(1-piperidinyl)-1-propanone) hydrochloride], the MIC in test [1] (Staphylococcus aureus) worked out at 512 µg/mL; in test [1] (setting [4]), 512 µg/mL; in test [1] (Staphylococcus aureus, with HT61 4 μg/ml, Plate 1, read-out: MIC of HT00800059 + HT61), 128 µg/mL; in test [1] (drug alone, Plate 2) it was 512 µg/mL; in test [2] (setting [4]), 512 µg/mL. The “HT00800059 MIC in combination” value in test [1] (with HT61 4 μg/ml) is 128 µg/mL; in test [2] (with HT230 at 2 μg/ml) it was 64 µg/mL; in test [2] (with HT281 at 4 μg/ml), 128 µg/mL. Further, the “MIC of HT00800059 + HT61” value in test [1] (with HT61 4 μg/ml, Plate 2) turned out to be 128 µg/mL. The MIC after combination in test [2] (HT230/HT00800059 chequerboard) is 64 µg/mL; in test [2] (HT281/HT00800059 chequerboard), 128 µg/mL. Also, the MIC before combination in test [2] (HT230/HT00800059 chequerboard) and in test [2] (HT281/HT00800059 chequerboard) was 512 µg/mL throughout.
For `C/C(=C\C(=O)OCCCCCCCCC(=O)O)C[C@@H]1OC[C@H](C[C@@H]2O[C@H]2[C@@H](C)[C@H](C)O)[C@@H](O)[C@H]1O` [Mupirocin], the “activity against clinically latent microorganisms” value in test [3] is reported as “little or no activity”.

A word on the MIC: it is the lowest concentration found to suppress growth.
